# Assay results reported in ChEMBL document CHEMBL6071126, “Recent advances in the chemistry and biology of oleanolic acid and its derivatives” (Eur J Med Chem, 2024).
# Legend:
# HepG2 [1] = test: Antiproliferative activity against human HepG2 cells assessed as reduction in cell growth incubated for 72 hrs by MTT assay; assay type: functional, cell-based; details: HepG2, 72 h
# HeLa = test: Cytotoxicity against human HeLa cells assessed as reduction in cell viability incubated for 48 hrs by MTT assay; assay type: functional, cell-based
# [2] = Potency index, ratio of OA IC50 to test compound IC50 for anti-inflammatory activity in LPS-induced mouse BV-2 cells assessed as inhibition of NO production; assay type: functional
# [3] = Inhibition of Clostridium histolyticum Collagenase using DQ gelatin as substrate measured after 30 mins by fluorescence based microplate reader analysis; parameters: species or system Hathewaya histolytica
# Hathewaya histolytica = test: Inhibition of Clostridium histolyticum Collagenase at 250 ug/ml relative to control; details: dose 250.0 µg/ml
# Alpha glucosidase = Alpha glucosidase (Homo sapiens, UniProt O43451+P10253+P14410+Q2M2H8); test: Inhibition of Alpha glucosidase (unknown origin); assay type: protein assay
# HepG2 [4] = test: Cytotoxicity against human HepG2 cells assessed as reduction in cell viability incubated for 72 hrs by MTT assay; details: HepG2, 72 h
# A549 = test: Cytotoxicity against human A549 cells assessed as reduction in cell viability incubated for 72 hrs by MTT assay; details: A549, 72 h
# BGC-823 = test: Cytotoxicity against human BGC-823 cells assessed as reduction in cell viability incubated for 72 hrs by MTT assay; assay type: functional, cell-based; details: BGC-823, 72 h
# MCF7 = test: Cytotoxicity against human MCF7 cells assessed as reduction in cell viability incubated for 72 hrs by MTT assay; details: MCF7, 72 h
# PC-3 = test: Cytotoxicity against human PC-3 cells assessed as reduction in cell viability incubated for 72 hrs by MTT assay; assay type: functional, cell-based; details: PC-3, 72 h
# [5] = Apparent permeability across apical to basolateral side in human Caco-2 cells at 10 uM incubated for 90 mins at pH 7.4 by LC/MS analysis; assay type: ADME, cell-based; details: Caco-2, pH 7.4
# [6] = Oral bioavailability in rat; assay type: ADME, organism-based; details: in vivo
# [7] = Aqueous solubility of compound; assay type: physicochemical
compound,measurement,setting,value
CON(C[C@]12CCC(C)(C)CC1C1=CCC3[C@@]4(C)CC[C@H](O)C(C)(C)C4CC[C@@]3(C)[C@]1(C)CC2)[C@@H]1O[C@H](CO)[C@@H](O)[C@H](O)[C@H]1O (stereo partly specified),IC50,HepG2 [1],2100 nM
Cc1ccccc1COC(=O)[C@]12CCC(C)(C)CC1C1=CCC3[C@@]4(C)CC[C@H](OC(=O)/C=C/c5ccc([N+](=O)[O-])cc5)C(C)(C)C4CC[C@@]3(C)[C@]1(C)CC2 (stereo partly specified),IC50,HeLa,1350 nM
COC(=O)[C@]12CCC(C)(C)CC1C1=CC(=O)C3[C@@]4(C)Cc5c([nH]c6ccc(C#N)cc56)C(C)(C)C4CC[C@@]3(C)[C@]1(C)CC2 (stereo partly specified),Ratio IC50,[2],1.93
CC(C)[C@H](NC(=O)[C@H](CCCCN)NC(=O)[C@]12CCC(C)(C)CC1C1=CCC3[C@@]4(C)CC[C@H](O)C(C)(C)C4CC[C@@]3(C)[C@]1(C)CC2)C(=O)N[C@@H](CCCCN)C(=O)O (stereo partly specified),IC50,[3],48.8 µg/mL
same,inhibition,Hathewaya histolytica,100%
CC1(C)CC[C@]2(C(=O)C(=O)O)CC[C@]3(C)C(=CCC4[C@@]5(C)Cc6cnn(-c7ccc(Cl)cc7)c6C(C)(C)C5CC[C@]43C)C2C1 (stereo partly specified),IC50,Alpha glucosidase,2640 nM
COC(=O)[C@]12CCC(C)(C)CC1C1=CC(=O)C3[C@@]4(C)Cc5c([nH]c6cc(F)cc(F)c56)C(C)(C)C4CC[C@@]3(C)[C@]1(C)CC2 (stereo partly specified),Ratio IC50,[2],2.41
CC1(C)CC[C@]2(C(=O)OCc3ccccc3Cl)CC[C@]3(C)C(=CCC4[C@@]5(C)CC[C@H](O)C(C)(C)C5CC[C@]43C)C2C1 (stereo partly specified),IC50,HeLa,1550 nM
O=c1[nH]cc(F)c(=O)[nH]1 [FLUOROURACIL],IC50,HepG2 [4],< 1000 nM
same,IC50,A549,< 1000 nM
same,IC50,BGC-823,< 1000 nM
same,IC50,MCF7,< 1000 nM
same,IC50,PC-3,< 1000 nM
CC1(C)CC[C@]2(C(=O)O)CC[C@]3(C)C(=CC[C@@H]4[C@@]5(C)CC[C@H](O)C(C)(C)[C@@H]5CC[C@]43C)[C@@H]2C1 [OLEANOLIC_ACID],"Papp A→B at 1.5 h, 10 µM",[5],1.1 ×10⁻⁶ cm/s
same,bioavailability,[6],0.7%
same,solubility,[7],< 1 µg/mL
